# Patent US4501744A, “Substituted-aza-cytosine compounds and anti-viral uses thereof” (ens BIO LOGICALS Inc., priority 1983, dated 1985)
# Read-outs that look alike come from different tables or passages of the source.
# Experiments:
# [1] = system: herpes simplex virus (HSV); assay: Plaque titration: reduction of plaque size and plaque number of herpes simplex virus in human fetal fibroblasts; format: cell-based; conditions: for IC25 / IC50 / IC75: Fibroblast, human fetal fibroblasts, 48 h
# Experimental: Herpes simplex virus (HSV) strains were grown and titrated at 36° C. in human fetal fibroblasts derived from fetal tissues, and used for virus work before the tenth passage. Cells were grown and maintained in basal medium Eagle (BME; Auto-Pow, Flow Laboratories) supplemented with 0.112% sodium bicarbonate, 2 mM 1-glutanine, 2 mg neomycin per 100 ml and 5-20% calf serum. 5% BME, as described hereafter, indicates medium containing 5 ml of calf serum in a total volume of 100 ml.
# The titer of the HSV strains is determined by a plaque titration method (Roizman & Roane, "Virology", 15, 75-79, 1961). Tissue culture dishes are seeded with cells and used for assays when approximately 75% monolayer. Volumes (0.2 ml) of logarithmic dilutions of the strain are inoculated onto each of two tissue culture dishes, and adsorbed for 1 hr. with intermittent shaking, the inoculum removed, and 2 ml of 5% BME containing 0.5% human immune serum globulin added. After a 48 hour incubation period at 36° C. in a 5% CO2 atmosphere, the overlay medium is removed and the cell sheets stained with a 0.05% aqueous crystal violet solution. The number of plaques is counted, the duplicates averaged, and the number of plaque-forming units calculated.
# The compounds are tested for activity against the herpes simplex strains using a stock solution of each compound freshly prepared by dissolving 1.2 mg in BME. Appropriate dilution of each compound are made in 5% BME containing 0.5% human immune serum globulin just before usage.
# Tissue culture dishes (35 by 10 mm) with approximately 75% cell monolayer are inoculated with approximately 50 plaque-forming units of HSV per 0.2 ml, and the virus adsorbed for 1 hour, with intermittent shaking. After removal of the inoculum, 2 ml of 5% BME with 0.5% immune globulin and three-fold dilutions of the appropriate drug are added. One set of dishes receives no drug and is used as a control. After a 48-hour incubation period, at 36° C. in a 5% CO2 atmosphere, the overlay medium is removed, the cells stained as described above, and plaques counted. The counts of replicate plates are averaged, and the number of plaques emerging in the presence of each drug dilution is calculated. The reduction in plaque size caused by the concentration of the drug, as compared with the relevant control, is also measured, visually. […] A reduction in the area of the growing plaque indicates inhibition of plaque growth, i.e. inhibition of viral reproduction, caused by the drug.
# cytomegalovirus (CMV) = assay: CMV plaque (microplaque/ELISA) assay in human fetal fibroblast (lung) HFF cells; format: cell-based; conditions: at a dosage level non-toxic to mammalian cells
# Experimental: The compounds of example 3, (5-aza-C*) was tested in vitro for activity against cytomegalovirus, CMV, in mammalian cells. Human fetal fibroblast (lung) HFF cells were used, in generally standard viral plaque titration methods.
# Human fetal fibroblast (lung) HFF cells were used, in generally standard viral plaque titration methods. The cells were grown and maintained in Basal Medium Eagle (BME) supplemented with 0.112% sodium bicarbonate, 2 mM L-glutamine, 2 mg % neomycin and 20% (vol/vol) calf serum.
# A viral plaque titration method (Roizman & Roane, 1961) was used to determine the virus titre of the CMV. 35 mm tissue culture plates were seeded with HFF 36 P5 and grown to 50-70% monolayer. […]
# The cells were incubated for 72 hours at 37° C. in 5% carbon dioxide atmosphere. At 75 hours, the number of CMV infected foci (microplaques) was quantitated using enzyme linked immunosorbent assay (ELISA) using as an enzyme tag horseradish peroxidase and DAB substrate so as to stain the infected foci with a brown precipitate. […]
# CMV-positive human serum was diluted 1:10 with PBS, and 0.2 ml of the diluted serum was put in each plate and the plate shaken for 30 minutes. […] Plaques were counted, and numbers of plaques per microscopic field determined.
# The reading of the CMV assay was done by comparing no-drug controls to the drug treated plates. […]
# [2] = system: human fetal fibroblasts / mammalian cells; assay: Toxicity to host cells; format: cell-based; conditions: at the dosage level active against HSV and CMV
# Toxicity to host cells = format: cell-based, human; conditions: in the HSV test; human fetal fibroblasts; read-out: concentration up to which no evidence of toxicity was shown
# [3] = system: herpes simplex virus (HSV); conditions: disclosed in U.S. Pat. No. 4,347,360; cited from earlier work
# [4] = read-out: concentration reducing plaque numbers by 25%
# [5] = read-out: concentration reducing plaque numbers by 50%
# [6] = read-out: concentration reducing plaque size by 25%
# [7] = read-out: concentration reducing plaque size by 50%
Compound,activity against HSV (in words) [1],activity against CMV (in words) (cytomegalovirus (CMV)),"IC25 [1, 4] [µg/mL]","IC50 [1, 5] [µg/mL]",IC75 ([1]; read-out: concentration reducing plaque numbers by 75%) [µg/mL],"IC25 [1, 6] [µg/mL]","IC50 [1, 7] [µg/mL]",IC75 ([1]; read-out: concentration reducing plaque size by 75%) [µg/mL],activity against HSV (in words) ([1]; listed as 5-aza-1-[[1-hydroxymethyl(2-hydroxy)ethoxy]methyl]cytosine),toxicity to mammalian cells (in words) [2],MNTC at 48 h (Toxicity to host cells) [µg/mL],activity against herpes simplex virus (in words) [3]
"Nc1ccn(COC(COCc2ccccc2)COCc2ccccc2)c(=O)n1 [dibenzyl-C*, 1-[[2-benzyloxy-1-(benzyloxymethyl)]ethoxymethyl]cytosine]","exhibited activity against HSV, but to a lesser extent",–,–,–,–,–,–,–,–,–,–,–
"Nc1ncn(COC(CO)CO)c(=O)n1 [5-aza-C*, 5-aza-1-[[1-hydroxymethyl-[2-hydroxy]-ethoxy]methyl]cytosine]",high activity against the HSV,active,8,30,140,5,30,110,active against herpes simplex virus HSV,non-toxic to mammalian cells,> 304,–
Nc1ncnc2c1ncn2COC(CO)CO [9-[[2-hydroxy-1-(hydroxymethyl)ethoxy]-methyl]adenine],–,–,–,–,–,–,–,–,–,–,–,active against herpes simplex virus
"O=c1[nH]c(=O)n(COC(COCc2ccccc2)COCc2ccccc2)cc1F [5F-benzyl-U*, 1-[[2-benzyloxy-1-(benzyloxymethyl)ethoxy]methyl]-5-fluorouracil]",showed activity against HSV,–,70,110,–,10,50,–,–,–,> 110,–
